Data on 13 compounds can be found in publication PMC12163635, “Synthetic Retinoids for the Modulation of Genomic and Nongenomic Processes in Neurodegenerative Diseases” (ACS Omega, 2025).

The target in assay [1] is T1, RARγ (Homo sapiens, UniProt P13631).
T1 construct: His6-3C-SUMO (cleaved yes); made in house; host or cells: E. coli BL21(DE3), pOPINS3C vector
T1 sequence (P13631 185-419 limits assumed): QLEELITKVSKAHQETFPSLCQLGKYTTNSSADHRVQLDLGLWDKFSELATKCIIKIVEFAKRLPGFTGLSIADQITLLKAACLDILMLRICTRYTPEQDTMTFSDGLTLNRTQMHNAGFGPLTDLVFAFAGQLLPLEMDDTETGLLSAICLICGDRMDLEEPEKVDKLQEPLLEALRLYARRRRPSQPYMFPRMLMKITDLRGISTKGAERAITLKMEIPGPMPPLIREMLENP
The assay is described as follows: Fluorescence competition binding assay (displacement of DC271). The settings on record: for Kd: read-out: Binding KD (± SD) RARγ; for ΔGEXP RARγ: experimental binding free energy from K D, ΔGexp=−RT ln K, 298.1 K. How it is done:
Fluorescence competition assays were employed to determine the relative binding affinities of each synthetic retinoid toward the LBD of the RARs. The assay is based on the potential for competitive displacement of the inherently fluorescent retinoid DC271 from the LBP by a test nonfluorescent synthetic retinoid. Changes in the fluorescence were measured following the addition of a serial dilution of the test compound and the results were plotted to generate a binding curve. […] Assays were performed for both RARα and RARγ. […] Nonlinear least-squares regression analyses were performed to calculate binding affinities and reported as binding K D, the equilibrium dissociation constant between the RAR isoform and the test synthetic retinoid.
RARα/γ proteins were expressed in BL21(DE3) cells (NEB) transformed into pET50b (Novagen) and pOPINS3C vectors, respectively, carrying the gene construct and containing a His6-3C-NusA tag or His6-3C-SUMO tag used for solubility. Transformations were carried out under standard conditions using Quick Transformation Protocol (New England Biolabs). Successful transformants were grown overnight in 2xYT media (Melford) and frozen for storage at −80 °C in 50% glycerol. Expression cultures were inoculated from glycerol stocks into 25 mL of 2xYT media (Melford) with 50 μg/mL kanamycin or 100 μg/mL ampicillin (Sigma-Aldrich) and grown overnight with shaking (37 °C, 150 rpm). The overnight cultures were transferred into 1 L expression flasks (2xYT/ampicillin 100 μg/mL or 2xYT/kanamycin 50 μg/mL) and grown with shaking at 37 °C, 150 rpm. Induction was carried out at an OD600 of 0.6–0.8, with 1 mL of 1 M IPTG (1 mM in culture), before shaking overnight (20 h) at 18 °C. The resulting cultures were spun down into pellets using an Avanti Hi-Speed centrifuge (JLA 8.1000, 4000 rpm, 30 min, 4 °C), before the supernatant was removed and the bacterial pellet were frozen at −80 °C.
RARα/γ (pET50b or pOPINS3C, BL21(DE3) (NEB)) were resuspended from pellet with 20 mL Wash Buffer (20 mM Tris-HCl, 300 mM NaCl and 20 mM imidazole, pH 8) and the resulting suspension was sonicated on ice (40% power, 2 min, repeated twice with 1 min rest in-between) before centrifuging (Avanti Hi-Speed JA25.50, 20,000 rpm, 1 h, 4 °C). Supernatants were clarified using 0.45 μm syringe filters (Thermo Fisher Scientific). Affinity chromatography and size-exclusion (SEC) chromatography were carried out on AKTA Pure25 (Cytiva). Supernatants were loaded onto the HisTrap HP column (5 mL, Cytiva) and washed using 25 mL of wash Buffer. The column was washed with Wash Buffer until UV trace returned to baseline, before RARα/γ was eluted using a gradient of Elution Buffer (20 mM Tris-HCl, 300 mM NaCl, 500 mM imidazole pH 8). The resulting protein-containing fractions were analyzed by SDS-PAGE (200 V, 30 min) using SurePAGE Bis-Tris 12% precast gels (Genscript). Protein concentrations were estimated using absorbance at 280 nm on a DS-11 spectrophotometer (Denovix) with calculated molecular weights and extinction coefficients (Expasy). RAR proteins were cleaved overnight from 3C-NusA tag or 3C-SUMO-His tag using 1 Unit/100 μg protein of HRV3C protease (Thermo Fisher Scientific) at 4 °C. Solution after digestion was loaded onto a HiLoad 16/600 Superdex 75 prep-grade column (Cytiva) and cleaved RARα/γ was separated from the tag based on molecular weight and eluted from the column using SEC Buffer (20 mM Tris-HCl, 300 mM NaCl and 0.5 mM TCEP, pH 8) into 2 mL fractions. The resulting protein fractions were analyzed by SDS PAGE (200 V, 30 min) using SurePAGE Bis-Tris 12% precast gels (Genscript), before being concentrated to 5 mg/mL using centrifugal concentrators (Sartorius) and frozen at −80 °C in small aliquots for use in binding assays.

The subject of assay [2] is SH-SY5Y cells. Nature of the assay: Neurite outgrowth. It is filed as cell-based, human. The settings on record: 5 days; for fold induction at 0.01 µM: Homo sapiens, SH-SY5Y, 120 h, read-out: fold increase in neurite outgrowth; for induction of neurite outgrowth compared with ATRA: 10 nM. The protocol: Following the characterization of retinoids for their genomic and nongenomic activities, the ability of retinoids to differentiate and induce neurite outgrowth in the neuroblastoma cell line, SH-SY5Y cells, was examined (Figure ). Neurite outgrowth can be induced in this cell line by ATRA at 10 μM.
SH-SY5Y cell line as used in ERK phosphorylation and neurite outgrowth assays described below. The cells were grown in DMEM containing 10% FCS at 37 °C with 5% CO2. The medium was changed three times a week and the cells were passaged at 70% confluence using 0.05% trypsin-EDTA.
SH-SY5Y cells were plated at 10,000 cells/well in 12-well plates containing 16 mm acid-treated/poly L-lysine-coated glass coverslips. After 24 h, retinoids were added to the medium and tested at two different concentrations, 10 μM and 10 nM, with a final DMSO concentration of 0.01 or 0.0001%, respectively. The plates were incubated for 5 days at 5% CO2/37 °C. All retinoid concentrations were tested in triplicate. Cells were fixed using 4% paraformaldehyde and stained for β-III tubulin (1:1000; Sigma). For each neurite outgrowth experiment, 3 coverslips (in 3 wells) were used. ImageJ software with the NeuronJ plugin was used to quantify neurite outgrowth on stained cells in each of the 10 randomly selected images of each coverslip taken using a Nikon Eclipse E400 fluorescence microscope. The average neurite length was calculated for each image by dividing total neurite length by the total number of neurites per image.
All data are presented as mean ± SEM of three independent experiments with biological triplicates. Statistical analyses were performed in Microsoft Office Excel 2019 or GraphPad Prism 7.0c version (Prism, GraphPad Software, San Diego, CA). Neurite outgrowth data were analyzed by one-way ANOVA with Newman-Keuls multiple comparison test as appropriate; P value <0.05 was considered statistically significant. *P < 0.05, **P < 0.01. Data for X-Gal and ERK1/2 phosphorylation were analyzed using sigmoidal dose–response analysis of log (agonist) versus response curve (stimulation).

The mark [3] stands for this setting: 10 nM compound, in comparison to nontreated cells.

What is called Kd is a measure of binding affinity in units of concentration. As to `CC1(C)CCC(C)(C)c2cc(C#Cc3ccc(C(=O)O)c(F)c3)ccc21` [Compound 13, 2-Fluoro-4-[2-(5,5,8,8-tetramethyl-5,6,7,8-tetrahydronaphthalen-2-yl)ethynyl]benzoic Acid], the Kd in assay [1] (100 nM RAR and DC271 on plate) is 18.6 nM. Moreover, the “ΔGEXP RARγ” value in assay [1] was -10.6 kcal/mol. In addition, the fold induction at 0.01 µM in assay [2] (setting [3]) was 1.9.
Taken in the same sequence, the figures for `CC1(C)CCC(C)(C)c2cc(C#Cc3ccc(C(=O)O)cc3F)ccc21` [Compound 14, 3-Fluoro-4-[2-(5,5,8,8-tetramethyl-5,6,7,8-tetrahydronaphthalen-2-yl)ethynyl]benzoic Acid] were 16 nM, -10.7 kcal/mol and 2.1.
In the case of `CC1(C)CCC(C)(C)c2cc(C#Cc3cc(F)c(C(=O)O)c(F)c3)ccc21` [Compound 15, 2,6-Difluoro-4-[2-(5,5,8,8-tetramethyl-5,6,7,8-tetrahydronaphthalen-2-yl)ethynyl]benzoic Acid], the Kd in assay [1] (100 nM RAR and DC271 on plate) came out at 22.7 nM. In addition, in assay [1], the “ΔGEXP RARγ” value was -10.4 kcal/mol. The fold induction at 0.01 µM in assay [2] (setting [3]) was 1.7.
Taken in the same sequence, the figures for `CC1(C)CCC(C)(C)c2cc(C#Cc3ccc(C(=O)O)cc3Cl)ccc21` [Compound 16, 3-Chloro-4-[2-(5,5,8,8-tetramethyl-5,6,7,8-tetrahydronaphthalen-2-yl)ethynyl]benzoic Acid] were 24.2 nM, -10.4 kcal/mol and 1.6.
On to `Cc1cc2c(cc1C#Cc1ccc(C(=O)O)c(F)c1)C(C)(C)CCC2(C)C` [Compound 17, 2-Fluoro-4-[2-(3,5,5,8,8-pentamethyl-5,6,7,8-tetrahydronaphthalen-2-yl)ethynyl]benzoic Acid], for which the Kd in assay [1] (100 nM RAR and DC271 on plate) was found to be 20.6 nM. Besides, the “ΔGEXP RARγ” value in assay [1] was -10.5 kcal/mol. Further, in assay [2], the “induction of neurite outgrowth compared with ATRA” value (from here on “induction … compared with ATRA”) is on record as “induced neurite outgrowth but not significantly compared to ATRA”.
In the case of `Cc1cc2c(cc1C#Cc1ccc(C(=O)O)cc1F)C(C)(C)CCC2(C)C` [Compound 18, 3-Fluoro-4-[2-(3,5,5,8,8-pentamethyl-5,6,7,8-tetrahydronaphthalen-2-yl)ethynyl]benzoic Acid], in assay [1] (100 nM RAR and DC271 on plate), the Kd was 18.6 nM. The “ΔGEXP RARγ” value in assay [1] is -10.6 kcal/mol. For the same compound, the “induction … compared with ATRA” value in assay [2] is given as “induced neurite outgrowth but not significantly compared to ATRA”.
`Cc1cc2c(cc1C#Cc1cc(F)c(C(=O)O)c(F)c1)C(C)(C)CCC2(C)C` [Compound 19, 2,6-Difluoro-4-[2-(3,5,5,8,8-pentamethyl-5,6,7,8-tetrahydronaphthalen-2-yl)ethynyl]benzoic Acid]: the Kd in assay [1] (100 nM RAR and DC271 on plate) worked out at 33.7 nM. Moreover, the “ΔGEXP RARγ” value in assay [1] was -10.2 kcal/mol. For the same compound, the “induction … compared with ATRA” value in assay [2] was “significantly induced neurite outgrowth compared to ATRA”. Further, the fold induction at 0.01 µM in assay [2] (setting [3]) came out at 1.6.
`COc1cc2c(cc1C#Cc1cc(F)c(C(=O)O)c(F)c1)C(C)(C)CCC2(C)C` [Compound 22, 2,6-Difluoro-4-[2-(3-methoxy-5,5,8,8-tetramethyl-5,6,7,8-tetrahydronaphthalen-2-yl)ethynyl]benzoic Acid]: the Kd in assay [1] (100 nM RAR and DC271 on plate) was determined as 355 nM. Besides, the “ΔGEXP RARγ” value in assay [1] is -8.81 kcal/mol. The “induction … compared with ATRA” value in assay [2] is listed as “induced neurite outgrowth but not significantly compared to ATRA”.
As for `CC1(C)CCC(C)(C)c2cc(C#Cc3ccc(C(=O)O)cn3)ccc21` [Compound 23, 6-[2-(5,5,8,8-Tetramethyl-5,6,7,8-tetrahydronaphthalen-2-yl)ethynyl]pyridine-3-carboxylic Acid], in assay [1] (100 nM RAR and DC271 on plate), the Kd turned out to be 24.3 nM. The “ΔGEXP RARγ” value in assay [1] is -10.4 kcal/mol. Moreover, the “induction … compared with ATRA” value in assay [2] was “significantly induced neurite outgrowth compared to ATRA”. In assay [2] (setting [3]), the fold induction at 0.01 µM came to 1.9.
Regarding `CC1(C)CCC(C)(C)c2cc(C#Cc3ccc(C(=O)O)nc3)ccc21` [Compound 24, 5-[2-(5,5,8,8-Tetramethyl-5,6,7,8-tetrahydronaphthalen-2-yl)ethynyl]pyridine-2-carboxylic Acid], the Kd in assay [1] (100 nM RAR and DC271 on plate) was determined as 254 nM. Moreover, the “ΔGEXP RARγ” value in assay [1] was -9.00 kcal/mol. The “induction … compared with ATRA” value in assay [2] is “significantly induced neurite outgrowth compared to ATRA”. For the same compound, the fold induction at 0.01 µM in assay [2] (setting [3]) was 2.2.
As for `CC1(C)CCC(C)(C)c2cc(C#Cc3cnc(C(=O)O)cn3)ccc21` [Compound 25, 5-[2-(5,5,8,8-Tetramethyl-5,6,7,8-tetrahydronaphthalen-2-yl)ethynyl]pyrazine-2-carboxylic Acid], the “Binding KD (± SD) RARγ” value in assay [1] (100 nM RAR and DC271 on plate) is on record as “noncompetitive binding”. Moreover, the “ΔGEXP RARγ” value in assay [1] was “Non-competitive Binding”. In assay [2], the “induction … compared with ATRA” value is listed as “induced neurite outgrowth but not significantly compared to ATRA”.
In the case of `Cc1cc2c(cc1C#Cc1ccc(C(=O)O)cn1)C(C)(C)CCC2(C)C` [Compound 26, 6-[2-(3,5,5,8,8-Pentamethyl-5,6,7,8-tetrahydronaphthalen-2-yl)ethynyl]pyridine-3-carboxylic Acid], the Kd in assay [1] (100 nM RAR and DC271 on plate) stood at 90.5 nM. For the same compound, the “ΔGEXP RARγ” value in assay [1] was -9.61 kcal/mol. Further, the “fold increase in neurite outgrowth” value in assay [2] (setting [3]) is reported as “no response”. In assay [2], the “induction … compared with ATRA” value is recorded as “unable to induce neurite outgrowth”.
Turning to `COc1cc2c(cc1C#Cc1ccc(C(=O)O)cn1)C(C)(C)CCC2(C)C` [Compound 27, 6-[2-(3-Methoxy-5,5,8,8-tetramethyl-5,6,7,8-tetrahydronaphthalen-2-yl)ethynyl]pyridine-3-carboxylic Acid], the equilibrium dissociation constant (Kd) in assay [1] (100 nM RAR and DC271 on plate) amounted to 2150 nM. The “ΔGEXP RARγ” value in assay [1] was -7.76 kcal/mol. The fold induction at 0.01 µM in assay [2] (setting [3]) is 1.7.
